{"source": "patent US20040235767A1", "about": "“Anti-angiogenic and immunotherapeutic compositions for cancer treatment” (priority 2004, published 2004)", "origin": "cited, not measured here", "system": "large tumours", "conditions": "previously reported"}
{"smiles": "Cc1ccc2c(=O)c3cccc(CC(=O)O)c3oc2c1C", "note": "[DMXAA, 5,6-dimethylxanthenone-4-acetic acid]", "values": [{"measurement": "effect on large tumours in combination with B7-1-mediated immunotherapy", "result": "eradication of large tumours"}]}
